Measurements: patent US20210161883A1, “EZH2 INHIBITOR-INDUCED GENE EXPRESSION” (Constellation Pharmaceuticals, Inc., priority 2017, published 2021)
“Also recorded” adds a separate entry of the source.

Tests used:
Karpas-422 cells = assay: Multiplexed QuantiGene assay of EZH2-controlled signature genes in Karpas-422 cells in vitro; assay type: cell-based, human; settings: 1.5 μM, 4 days, vs DMSO
Method: The gene list described in Table 2 was submitted to Affymetrix, and a multiplexed QuantiGene® assay (https://www.ebioscience.com/application/gene-expression/quantigene-plex-assay.htm) probe set on the basis was generated specific to the human genome (see Appendix B). The primer and probe sequences used to generate the multiplex assay were not made available by the vendor.
In addition to validating the assay using a Karpas-422 mouse xenograft model, RNA from Karpas-422 cells treated with 1.5 μM Compound 1 for 4 days was also used. Samples were processed and quantitated as described above. […]
(§1) For each gene in each sample, the background median fluorescence intensity (MFI) value (recorded on the Luminex Magpix) was subtracted from the gene's measured MFI value. […]
(§2) Following regularization, the data from each well was processed independently by first generating a normalization factor by taking the geometric mean of regularized background-subtracted MFI values for 4 housekeeping genes (ACTB, POLR2A, PPIB, TBP). […] If more than 1 technical replicate was run for an individual sample, an average value was then calculated for each gene. These values were then converted to log 2 space, and log 2 fold change values were determined by subtracting vehicle/control values from treated values. […]

[1] = test system: Karpas-422 GCB-DLBCL cells; assay: RNA-sequencing gene expression profiling of Karpas-422 cells; assay type: cell-based, human; settings: 1.5 μM, 4 days
Method: Lymphoma cell lines were grown in 10 ml cultures (as described in 2.1). Cells were treated with 0.1% DMSO, 1.5 μM Compound 1 or in the presence of 1.5 μM other EZH2 inhibitors such as GSK126 and EPZ6438 for 4 days. After drug treatment, cells were centrifuged at 500×g for 3 min, supernatant was removed, and cell pellet was resuspended in 0.75 ml Trizol Reagent (Life Technologies, catalog #15596-026). RNA was extracted as per the manufacturer's protocol, resuspended in nuclease-free water, quantified using a NanoDrop 2000 UV-vis spectrophotometer (Thermo Scientific), and sent to Ocean Ridge Biosciences (http://www.oceanridgebio.com/) for RNA-sequencing. Cell samples were collected and total RNA was prepared (see 2.2). […] (2) 7 DLBCL cell lines treated for 4 days with GSK343 (generated in two separate experiments, with HT and SUDHL6 comprising the first experiments, the other 5 cell lines in a second experiment. For the HT and SUDHL6 cell samples in dataset 2, reads were aligned to the hg19 genome using bowtie version 0.12.9. The other datasets were aligned to the hg19 genome with Tophat 1.4.1 The aligned read files were sorted and duplicates removed using sort and rmdup functions from samtools version 0.1.182. See Li, H. et al. The Sequence Alignment/Map format and SAMtools. Bioinformatics 25, 2078-2079 (2009). […]

[2] = test system: H3K27me3 levels in Karpas-422 xenografts; assay: H3K27me3 ELISA of Karpas-422 mouse xenograft tumor samples; assay type: in vivo; settings: Karpas-422 xenograft, 100 or 200 mg/kg BID oral
Method: (§3) FIGS. 4A and B illustrate a comparison of Compound 1-mediated H3K27me3 level and gene expression changes in phenotypically responsive Karpas-422 xenografts where (A) represents tumor samples (n=4) from a Karpas-422 mouse xenograft experiment in which mice were dosed twice daily, orally with vehicle, 100 or 200 mg/kg of Compound 1 for 4, 7, or 14 days, and were analyzed by ELISA assays to determine H3K27me3 levels; and (B) is the same tumor samples described in (A) (n=4), but were analyzed by a multiplexed QuantiGene® assay for the transcript levels of 50 genes, 4 of which were housekeeping.

[3] = test system: global H3K27me3 levels in Karpas-422 GCB-DLBCL cells; assay: H3K27me3 western blotting in Karpas-422 cells treated with EZH2 inhibitors; assay type: cell-based, human; settings: 1.5 μM, 4 days, vs DMSO, total H3 as control
Method: Lymphoma cell lines were grown in 10 ml cultures (as described in 2.1). […] After drug treatment, cells were centrifuged at 500×g for 3 min, supernatant was removed, and cell pellet was resuspended in 0.75 ml Trizol Reagent (Life Technologies, catalog #15596-026). RNA was extracted as per the manufacturer's protocol, resuspended in nuclease-free water, quantified using a NanoDrop 2000 UV-vis spectrophotometer (Thermo Scientific), and sent to Ocean Ridge Biosciences (http://www.oceanridgebio.com/) for RNA-sequencing. […]
In order to detect potential EZH2 inhibitor-mediated gene expression changes that could serve as a manifestation of target engagement, Karpas-422 GCB-DLBCL cells were treated with vehicle (dimethyl sulfoxide; DMSO) or Compound 1 for 4 days. […] The samples that were committed to RNA-sequencing were analyzed for changes in H3K27me3 levels by western blotting. […]

Karpas-422 xenograft = assay: Multiplexed QuantiGene assay of signature genes in Karpas-422 mouse xenograft tumors; assay type: in vivo
Method: as §3
For isolation of RNA from tissues: Tumor samples from a Karpas-422 mouse xenograft experiment in which mice were dosed BID with vehicle, 100 or 200 mpk Compound 1 for 4, 7, or 14 days, were obtained. Tumors were frozen in liquid nitrogen, then pulverized. A small aliquot of frozen, pulverized tissue was resuspended in 600 μl buffer RLT (Qiagen) containing 65 mM DTT, applied to a QIAShredder column (Qiagen), and centrifuged for 3 min at 20,000×g. […] RNA was eluted in nuclease-free water, and concentrations were normalized following quantitation on a NanoDrop 2000 UV-vis spectrophotometer.
Initial tests were performed to determine the linearity of the QuantiGene® Plex Set, followed by full validation of the assay showing time- and dose-dependent gene expression changes in a mouse xenograft treated with Compound 1. […] The QuantiGene® assay was performed as per the manufacturer's protocol, and quantitated on a Luminex Magpix. […]
as §1
as §2, with “gene.” for “gene. These values were then converted to log 2 space, and log 2 fold change values were determined by subtracting vehicle/control values from treated values.”

RL xenograft = assay: Multiplexed QuantiGene assay of signature genes in RL mouse xenograft tumors; assay type: in vivo; settings: 200 mg/kg twice daily, day 18, tumors harvested 6 hours post-last dose
Method: (§4) To verify the gene signature as a readout of target engagement and not phenotypic responsive, an EZH2 inhibitor-insensitive GCB-DLBCL cell line, RL, was utilized in a mouse xenograft model. The RL xenograft bearing mice were treated twice daily with 200 mg/kg Compound 2 or vehicle control for 18 days. […] Tumors were harvested 6 hours post-last dose on day 18 of treatment and processed and analyzed using the QuantiGene® Plex assay, as described above.
as §1, §2
To determine the statistical significance of the engagement score, a phenotype permutation test was performed by randomly assigning the empirically determined expression values for each gene to the control or treated condition. […]

[4] = test system: RL xenograft (EZH2 inhibitor-insensitive GCB-DLBCL cell line); assay: RL mouse xenograft tumor volume; assay type: in vivo; settings: 200 mg/kg twice daily, 18 days
Method: as §4

Structure (SMILES)	signature gene expression (QuantiGene) (Karpas-422 cells)	gene expression changes compared with those of other EZH2 inhibitors (GSK126, EPZ-6438) [1]	number of genes with significantly changed expression ([1]; vs DMSO, log 2 fold change >0.8, p<0.05) [genes]	H3K27me3 levels normalized to total histone H3 (ELISA) ([2]; 14 days, t-test p<0.05 vs vehicle)	H3K27me3 levels normalized to total histone H3 (ELISA) ([2]; earlier time points (4, 7 days))	global H3K27me3 levels (western blotting) [3]	signature gene expression in tumors vs vehicle-treated tumors (Karpas-422 xenograft; 100 or 200 mg/kg BID oral, 4, 7 and 14 days, tumors harvested 6 hours post last dose)	gene expression signature (aggregate gene score), treatment arms vs vehicle arms (Karpas-422 xenograft; 100 or 200 mg/kg BID oral, all three time points (4, 7, 14 days))	magnitude of signature gene expression changes in tumors compared with cells treated in vitro (Karpas-422 xenograft; 4 days, 100 mg/kg BID and 200 mg/kg BID, vs cells at 1.5 μM for 4 days)	gene signature score (QuantiGene) (RL xenograft)	tumor volume vs vehicle-treated mice [4]
COc1cc(C)[nH]c(=O)c1CNC(=O)c1c(C)n([C@H](C)C2CCN(CC(F)(F)F)CC2)c2ccccc12 [Compound 1, (R)—N-((4-methoxy-6-methyl-2-oxo-1,2-dihydropyridin-3-yl)methyl)-2-methyl-1-(1-(1-(2,2,2-trifluoroethyl)piperidin-4-yl)ethyl)-1H-indole-3-carboxamide]	significant increase and decrease of signature gene expression	remarkably similar	604	significant reduction in H3K27me3 levels	not statistically significant	effectively reduced global H3K27me3 levels	significant induction of signature genes in a dose- and time-dependent manner; also recorded: significant alteration of signature genes; also recorded: significantly induced EZH2-target genes	robust and statistically significant change	did not show the same magnitude of signature gene expression changes	–	–
CCS(=O)(=O)N1CCC([C@@H](C)n2c(C)c(C(=O)NCc3c(OC)cc(C)[nH]c3=O)c3ccccc32)CC1 [Compound 2]	–	–	–	–	–	–	–	–	–	statistically significant gene signature score	No reduction in tumor volume
CCC(C)n1cc(C)c2c(C(=O)NCc3c(C)cc(C)[nH]c3=O)cc(-c3ccc(N4CCNCC4)nc3)cc21 (stereo not drawn) [GSK126, reference compound]	–	–	–	–	–	substantial loss of H3K27me3	–	–	–	–	–
